The assay concerns chitin deacetylase (CDA). In words: p-nitroaniline release, absorbance at […] nm. Format: biochemical, Aneurinibacillus aneurinilyticus. The settings on record: 50 mM phosphate buffer pH 7.4, 37 °C; partially purified enzyme with two bands.

Each structure is given as a SMILES string.

Broadly, the Km is the substrate concentration at which the rate is half of its maximum.

Consider `CC(=O)Nc1ccc([N+](=O)[O-])cc1` [p-nitroacetanilide], for which the Km worked out at 98.5 µM.

(Values after PMC11638627 (Current Research in Microbial Sciences, 2024).)
